Structures can show the parent of a compound that is named as a salt.
What was measured:
male Wistar rats = assay: Novel Object Recognition task (natural forgetting); assay type: in vivo, rat; conditions: sub-cutaneous, 30 minutes before T1, 48-hour retention interval, p<0.05 novel vs. familiar object
Excerpt: Novel Object Recognition Task:
The Novel Object Recognition (NOR) task is a behavioral assay commonly used to evaluate cognition, particularly recognition memory, in rodent models of CNS disorders. This test is based on the spontaneous tendency of rodents to spend more time exploring a novel object compared to a familiar one. The choice to explore the novel object reflects the use of learning and recognition memory. The assay is commonly used to evaluate potential therapeutic agents for Alzheimer's disease, other neurodegenerative diseases and psychiatric disorders.
Male Wistar rats (Harlan Laboratories) weighing 350-400 grams were housed under a reversed light cycle and are tested during the dark cycle. Testing was done under low lux conditions, measured to be ˜2-7 lux under red light. Animals were habituated and weighed one day prior to testing. During habituation, animals were placed in a cylindrical arena and allowed to explore for 3 minutes. Training (T1) was conducted approximately 24 hours later, with one set of identical objects placed on opposite sides of the arena. Animals were allowed to explore the objects in 3-minute sessions. Animals were dosed with a designated treatment 15-60 minutes prior to testing depending on the pharmacokinetic profile of the compound before the start of T1. Drug or vehicle was dosed subcutaneously based on body weight at 5 mL/kg. Testing (T2) was done at 48 hours after T1. During testing, one familiar object is replaced with a novel object. Animals were allowed to explore both objects in 3-minute sessions.
Animals were tracked using Noldus Ethovision XT (EthoVision XT version: 8.5, Noldus Inc. Wageningen, Netherlands) tracking software, using a 2 centimeter (cm) perimeter for each object as a separate zone. The test arena consisted of a cylinder, 80 cm diameter with 40 cm high walls of black acrylic that was opaque and matte. […]
Contact time was defined as the amount of time (seconds) an animal spent within the 2 cm perimeter of an object. […] Statistical significance was determined using a Mann Whitney U-test and the criterion was set at p<0.05. […]

[1] = biological target: human α7 nAChRs transiently expressed in Xenopus laevis oocytes (Homo sapiens (Human), UniProt P36544); assay: Oocyte electrophysiology screen (TEVC); assay type: cell-based; conditions: 0.01 mM test compound, peak current relative to 0.2 mM ACh
Sequence of human α7 nAChRs transiently expressed in Xenopus laevis oocytes (P36544 23-502 limits assumed): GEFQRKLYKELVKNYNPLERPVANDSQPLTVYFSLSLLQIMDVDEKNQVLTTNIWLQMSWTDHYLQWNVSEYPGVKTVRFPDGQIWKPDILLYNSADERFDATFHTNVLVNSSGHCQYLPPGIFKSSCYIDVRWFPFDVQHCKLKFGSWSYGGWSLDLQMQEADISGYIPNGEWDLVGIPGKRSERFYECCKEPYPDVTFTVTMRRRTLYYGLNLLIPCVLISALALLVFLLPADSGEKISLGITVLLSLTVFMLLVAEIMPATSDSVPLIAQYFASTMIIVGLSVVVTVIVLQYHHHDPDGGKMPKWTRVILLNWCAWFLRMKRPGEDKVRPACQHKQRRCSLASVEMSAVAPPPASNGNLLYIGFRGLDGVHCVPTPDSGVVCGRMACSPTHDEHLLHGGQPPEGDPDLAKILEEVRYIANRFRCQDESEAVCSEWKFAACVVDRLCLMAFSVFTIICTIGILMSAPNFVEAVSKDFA
How it was run: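 Peak inward current from 0.01 mM compound, applied 30 s, is expressed relative to a 5 s 0.2 mM ACh reference response, in triplicate. Recordings used two-electrode voltage clamp at −80 mV in Xenopus oocytes with 90 s OR2 washes.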

[2] = biological target: human 5-HT3 serotonin receptors (Homo sapiens (Human), UniProt P46098); assay: [3H]BRL 43694 competition binding; conditions: CHO cell membranes, [3H]BRL 43694, Cheng Prusoff; read-out: h-5HT3 Ki
Sequence of human 5-HT3 serotonin receptors (P46098 24-478): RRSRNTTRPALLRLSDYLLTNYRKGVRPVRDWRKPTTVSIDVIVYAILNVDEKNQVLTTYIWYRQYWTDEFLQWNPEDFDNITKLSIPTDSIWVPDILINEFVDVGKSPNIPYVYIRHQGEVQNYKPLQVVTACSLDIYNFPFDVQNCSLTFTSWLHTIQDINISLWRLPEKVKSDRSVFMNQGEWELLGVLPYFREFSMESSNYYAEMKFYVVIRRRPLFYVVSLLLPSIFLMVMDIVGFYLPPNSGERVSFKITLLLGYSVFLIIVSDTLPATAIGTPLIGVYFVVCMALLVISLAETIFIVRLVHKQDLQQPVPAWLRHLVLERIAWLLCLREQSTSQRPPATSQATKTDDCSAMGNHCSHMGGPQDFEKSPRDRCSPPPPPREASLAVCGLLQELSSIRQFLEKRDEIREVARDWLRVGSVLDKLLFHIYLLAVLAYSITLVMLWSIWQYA

SMILES	Active doses (male Wistar rats) [mg/kg]	% ACh @ 10 μM Oocyte ([1]; hydrochloride) [% ACh]	Ki [2] [nM]	% ACh @ 10 μM Oocyte [1] [% ACh]
O=C(NC1C2CCN(CC2)C12CC2)c1cc2ccc(Cl)cc2s1 (single isomer, unassigned; enantiomer1) [65a, 6-chloro-N-(1′-azaspiro[cyclopropane-1,2′-bicyclo[2.2.2]octan]-3′-yl)benzo[b]thiophene-2-carboxamide-enantiomer1 hydrochloride]	0.3	682		
Cc1ccc2cc(C(=O)NC3C4CCN(CC4)C34CC4)sc2c1 (single isomer, unassigned; enantiomer1) [68a, 6-methyl-N-(1′-azaspiro[cyclopropane-1,2′-bicyclo[2.2.2]octan]-3′-yl)benzo[b]thiophene-2-carboxamide-enantiomer1 hydrochloride]	0.001	769		
CC1(C)[C@H](NC(=O)c2cc3ccc(Cl)cc3s2)C2CCN1CC2 [(R)-12, (R)-6-chloro-N-(2,2-dimethylquinuclidin-3-yl)benzo[b]thiophene-2-carboxamide hydrochloride]	30		> 10000	765
CC1(C)[C@H](NC(=O)c2cc3cccc(Cl)c3o2)C2CCN1CC2.Cl [(R)-217, (R)-7-chloro-N-(2,2-dimethylquinuclidin-3-yl)benzofuran-2-carboxamide hydrochloride]			1100	473

Source: patent publication US10183938B2, “Geminal substituted quinuclidine amide compounds as agonists of α-7 nicotonic acetylcholine receptors” (AXOVANT SCIENCES GMBH, priority 2014, dated 2019)
